Test results reported in patent US20080292584A1 (priority 2005, published 2008).
Several values for one entry are separate records, joined by “and”; a condition that tells them apart may be missing. Identical values can stand only once. Like-named read-outs stand apart in the source and are kept apart here.

Columns and labels:
[1] = biological target: CYP2C9 (Homo sapiens, UniProt P11712); experiment: Induction/inhibition of CYP2C9 activity in cryopreserved human hepatocytes (tolbutamide)
Excerpt: (§1) Hepatocytes from three human donors were obtained from a cryopreserved hepatocyte bank (In Vitro Technologies, Inc., USA). After thawing, viable hepatocytes were transferred to collagen-coated 48-well plates for attachment in plating medium (DMEM stock (Dulbecco's modified Eagle's medium, supplemented with bovine serum albumin, fructose, N-(2-hydroxyethyl)piperazine-N′-(2-ethanesulfonate) (HEPES), and sodium bicarbonate), supplemented with antibiotics, bovine serum, hydrocortisone, insulin and minimum essential medium (MEM) nonessential amino acids). After attachment to the collagen matrix, plating medium was replaced with sandwich medium (plating medium supplemented with VITROGEN) and incubated until use.
(§2) The supplemented KHB was replaced with 150 μL supplemented KHB containing the appropriate isoform-selective substrate and incubated for 4 hrs prior to termination by adding 150 μL ice-cold methanol, except for the CYP2C8 incubations which were terminated by adding 150 μL acetonitrile.
(§3) All substrates were dissolved in acetonitrile.
(§4) Replicate trials and controls were performed. […] Additionally, reference control samples were included to evaluate inducibility of CYP2B6, CYP2C9, and CYP2C19 in the test system.
(§5) Mean specific activity values with associated p-values≦0.05 were deemed to be statistically significant.

[2] = biological target: T1, CYP2E1 (Homo sapiens, UniProt P05181); experiment: Induction/inhibition of CYP2E1 activity in cryopreserved human hepatocytes (chlorzoxazone)
T1 sequence (P05181 whole entry): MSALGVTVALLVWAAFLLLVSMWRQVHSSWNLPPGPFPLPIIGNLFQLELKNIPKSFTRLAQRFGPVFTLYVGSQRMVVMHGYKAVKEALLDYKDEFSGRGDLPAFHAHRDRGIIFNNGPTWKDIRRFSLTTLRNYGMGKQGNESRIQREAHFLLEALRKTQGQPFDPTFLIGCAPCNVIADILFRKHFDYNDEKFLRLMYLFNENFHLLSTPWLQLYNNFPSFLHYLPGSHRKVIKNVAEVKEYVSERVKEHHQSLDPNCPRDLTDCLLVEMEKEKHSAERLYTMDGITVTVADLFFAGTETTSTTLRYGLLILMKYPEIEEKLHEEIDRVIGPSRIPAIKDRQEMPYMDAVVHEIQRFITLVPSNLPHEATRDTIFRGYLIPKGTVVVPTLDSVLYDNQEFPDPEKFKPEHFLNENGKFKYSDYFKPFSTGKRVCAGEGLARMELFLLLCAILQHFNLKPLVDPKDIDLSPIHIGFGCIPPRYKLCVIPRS
Excerpt: as §1, §2, §3, §4, §5

[3] = biological target: CYP2D6 (Homo sapiens, UniProt P10635); settings: both, pH 7.4; for Mean Conc.: 60 min; for % Turnover Mean: microsomes, 1 h
Chain of CYP2D6 (P10635 whole entry): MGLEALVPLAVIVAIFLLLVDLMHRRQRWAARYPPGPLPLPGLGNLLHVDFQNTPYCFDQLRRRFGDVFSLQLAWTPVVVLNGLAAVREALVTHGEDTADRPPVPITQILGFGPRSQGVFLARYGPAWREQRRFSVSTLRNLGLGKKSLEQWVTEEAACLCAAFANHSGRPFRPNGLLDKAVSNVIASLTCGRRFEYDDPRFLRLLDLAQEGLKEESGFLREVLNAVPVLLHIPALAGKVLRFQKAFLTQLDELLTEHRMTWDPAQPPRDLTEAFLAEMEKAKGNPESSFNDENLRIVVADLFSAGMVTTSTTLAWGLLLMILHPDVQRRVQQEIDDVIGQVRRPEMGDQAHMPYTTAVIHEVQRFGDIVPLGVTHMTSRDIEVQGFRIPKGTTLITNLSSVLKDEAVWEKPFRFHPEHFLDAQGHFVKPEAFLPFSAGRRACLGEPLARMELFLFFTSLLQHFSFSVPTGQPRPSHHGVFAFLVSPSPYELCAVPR
Protocol: (§6) Human liver microsomes pooled from 15 individuals (male and female) (Pool HMMC-PL020; CellzDirect, Inc., In Vitro Products and Services Division) were used in some experiments of this study.
(§7) % Turnover=100−{[TA(final)]/[mean of TA(0 min)]}×100,
(§8) % Inhibition of Turnover=100{1−([TA(0 min)]−[TA(final-inhibitor)])/([TA(0 min)]−[TA(final-no inhibitor)])}.
(§9) The inhibitors or vehicle control were incubated with the pooled human liver microsomes (1 mg/mL) and NADPH (1 mM) in 0.1 M phosphate buffer, pH 7.4. […] Incubations were conducted in triplicate and terminated by addition of organic solvent. Samples were extracted and analyzed by LC-MS/MS as described above.

[4] = biological target: T1, CYP2E1; settings: both, microsomes, 1 h, 0.75 μM, pH 7.4
Protocol: as §6, §7, §8, §9

[5] = biological target: T1, CYP2E1; experiment: Inhibition of CYP2E1 activity in pooled human liver microsomes (chlorzoxazone 50 μM to 6-hydroxy chlorzoxazone); assay type: in vitro ADME; set-up: host or cells: cryopreserved primary human hepatocytes from three donors
Protocol: All other incubations were for 30 minutes.
Four replicates were performed.
Two replicates were performed.

[6] = biological target: T1, CYP2E1; experiment: Metabolism of metaxalone by expressed recombinant human CYP2E1 (Example 1); settings: 30 min
Protocol: Commercially available microsomes from baculovirus-infected insect cells containing singly-expressed recombinant wild-type (*1 allele) human CYP enzymes and cDNA-expressed human cytochrome p450 oxidoreductase [BD SUPERSOMES Enzymes; BD Biosciences Discovery Labware (Woburn, Mass.)] were used.
After a 5-minute pre-incubation, an NADPH regenerating system (NRS) was added to the incubation mixtures to initiate reactions, with a final incubation volume of 0.5 mL. Incubations were continued for 30 minutes, and then terminated, except for those for CYP2C19, which were incubated for 36 minutes prior to termination.
Matrix controls were performed to determine the background signal from the matrix components (microsomes (10 pmol p450), 01N Tris buffer, NRS, and 1% methanol). […] After a 5-minute pre-incubation, 2% sodium bicarbonate solution was added to the incubation mixtures. Incubation was for 30 minutes at a final volume of 0.5 mL. Matrix and metabolic negative controls were terminated by adding an equal volume of methanol. […] Analysis of samples was subsequent to storage at −70° C.

[7] = biological target: CYP3A4 (Homo sapiens, UniProt P08684); experiment: Metabolism of metaxalone by expressed recombinant human CYP3A4 at 5 or 20 pmol (Example 4); settings: for percent turnover / % Turnover Mean / [metaxalone] Mean / % Turnover % / [metaxalone]: 60 min; for % Turnover % / [metaxalone]: single replicates, listed as Metaxalone
Chain of CYP3A4 (P08684 2-503 limits assumed): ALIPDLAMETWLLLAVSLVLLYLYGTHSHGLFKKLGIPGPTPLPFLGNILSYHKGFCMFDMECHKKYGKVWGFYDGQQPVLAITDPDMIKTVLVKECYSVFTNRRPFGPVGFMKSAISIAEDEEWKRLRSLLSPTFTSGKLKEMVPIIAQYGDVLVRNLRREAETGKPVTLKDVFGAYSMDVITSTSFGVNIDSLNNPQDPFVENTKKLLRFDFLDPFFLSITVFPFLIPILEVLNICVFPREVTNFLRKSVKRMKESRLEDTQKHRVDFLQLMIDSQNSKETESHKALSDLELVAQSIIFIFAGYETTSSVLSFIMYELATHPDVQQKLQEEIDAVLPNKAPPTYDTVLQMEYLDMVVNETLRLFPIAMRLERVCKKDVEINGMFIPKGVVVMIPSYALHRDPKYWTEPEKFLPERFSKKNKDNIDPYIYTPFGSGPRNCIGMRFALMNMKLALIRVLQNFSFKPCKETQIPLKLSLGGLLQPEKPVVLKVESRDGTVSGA

[8] = tested on: CYP2A6; experiment: Chemical inhibition of metaxalone turnover in human liver microsomes, CYP2A6 inhibitor pilocarpine; settings: 1 mg/mL HLM, 60 min, with pilocarpine; for % Turnover / % inhibition of turnover / Conc.: single replicates
Protocol: as §6, §7, §8, §9

[9] = CYP isozyme 2E1, summary of studies
[10] = 0.75 μM metaxalone, 20 pmol cyp

Chain of CYP2C9 (P11712 whole entry): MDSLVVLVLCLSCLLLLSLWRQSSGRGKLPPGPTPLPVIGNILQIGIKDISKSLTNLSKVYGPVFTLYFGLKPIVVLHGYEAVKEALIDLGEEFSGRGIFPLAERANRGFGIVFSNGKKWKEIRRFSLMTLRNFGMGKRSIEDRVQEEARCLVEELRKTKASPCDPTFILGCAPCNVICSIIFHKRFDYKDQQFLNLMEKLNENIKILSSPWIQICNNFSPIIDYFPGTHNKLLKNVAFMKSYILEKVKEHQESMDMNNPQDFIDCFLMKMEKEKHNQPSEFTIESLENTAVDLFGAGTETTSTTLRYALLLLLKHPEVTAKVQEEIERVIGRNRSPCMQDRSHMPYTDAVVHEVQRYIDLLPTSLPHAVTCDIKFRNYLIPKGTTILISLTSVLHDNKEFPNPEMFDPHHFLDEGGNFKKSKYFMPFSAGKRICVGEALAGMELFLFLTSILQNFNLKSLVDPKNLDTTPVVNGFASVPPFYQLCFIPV

Cc1cc(C)cc(OCC2CNC(=O)O2)c1 (stereo not drawn) [metaxalone, 5-[(3,5-dimethylphenoxy)methyl]-2-oxazolidinone]
Inducer/Inhibitor [1]: − | Percent of VC ([1]; Donor 1, Metaxalone 0.4 μM): 108% | Percent of VC ([1]; Donor 1, Metaxalone 4 μM): 100% | Percent of VC ([1]; Donor 1, Metaxalone 40 μM): <73.2% | Percent of VC ([1]; Donor 2, Metaxalone 4 μM): 92.9% | Percent of VC ([1]; Donor 2, Metaxalone 40 μM): 60.4% | Percent of VC ([1]; Donor 3, Metaxalone 0.4 μM): 111% | Percent of VC ([1]; Donor 3, Metaxalone 40 μM): 78.4% | Specific Activity Mean ± SD ([1]; Donor 3, Metaxalone 40 μM): 0.127 ± 0.005 pmol/min/million cells | Specific Activity Mean ± SD ([1]; human, 48 h, 0.4 µM): 0.179 ± 0.0111 pmol/min/million cells | Specific Activity Mean ± SD ([1]; human, 48 h, 4 µM): 0.167 ± 0.0210 pmol/min/million cells | effect on CYP2C9 activity ([1]; human, hepatocytes, 48 h, 40 μM): significantly reduced CYP2C9 activity | Inducer/Inhibitor [2, 9]: 0 | Specific Activity Individual ([2]; Donor 1, Metaxalone 0.4 μM): 2.58 pmol/min/million cells and 2.66 pmol/min/million cells and 2.19 pmol/min/million cells | Specific Activity Mean ± SD ([2]; Donor 1, Metaxalone 0.4 μM): 2.47 ± 0.249 pmol/min/million cells | Percent of VC ([2]; Donor 1, Metaxalone 4 μM): 104% | Specific Activity Individual ([2]; Donor 1, Metaxalone 4 μM): 2.57 pmol/min/million cells and 2.47 pmol/min/million cells and 2.87 pmol/min/million cells | Specific Activity Mean ± SD ([2]; Donor 1, Metaxalone 4 μM): 2.64 ± 0.210 pmol/min/million cells | Percent of VC ([2]; Donor 1, Metaxalone 40 μM): 104% | Specific Activity Individual ([2]; Donor 1, Metaxalone 40 μM): 2.54 pmol/min/million cells and 2.66 pmol/min/million cells and 2.69 pmol/min/million cells | Specific Activity Mean ± SD ([2]; Donor 1, Metaxalone 40 μM): 2.63 ± 0.0782 pmol/min/million cells | Percent of VC ([2]; Donor 2, Metaxalone 0.4 μM): 104% | Specific Activity Individual ([2]; Donor 2, Metaxalone 0.4 μM): 0.631 pmol/min/million cells and 0.683 pmol/min/million cells and 0.765 pmol/min/million cells | Specific Activity Mean ± SD ([2]; Donor 2, Metaxalone 0.4 μM): 0.693 ± 0.0673 pmol/min/million cells | Percent of VC ([2]; Donor 2, Metaxalone 4 μM): 89.6% | Specific Activity Individual ([2]; Donor 2, Metaxalone 4 μM): 0.564 pmol/min/million cells and 0.605 pmol/min/million cells and 0.626 pmol/min/million cells | Specific Activity Mean ± SD ([2]; Donor 2, Metaxalone 4 μM): 0.598 ± 0.0317 pmol/min/million cells | Percent of VC ([2]; Donor 2, Metaxalone 40 μM): 99.6% | Specific Activity Individual ([2]; Donor 2, Metaxalone 40 μM): 0.558 pmol/min/million cells and 0.633 pmol/min/million cells and 0.804 pmol/min/million cells | Specific Activity Mean ± SD ([2]; Donor 2, Metaxalone 40 μM): 0.665 ± 0.126 pmol/min/million cells | Percent of VC ([2]; Donor 3, Metaxalone 0.4 μM): 90.7% | Specific Activity Individual ([2]; Donor 3, Metaxalone 0.4 μM): 0.449 pmol/min/million cells and 0.474 pmol/min/million cells and 0.462 pmol/min/million cells | Specific Activity Mean ± SD ([2]; Donor 3, Metaxalone 0.4 μM): 0.462 ± 0.0125 pmol/min/million cells | Percent of VC ([2]; Donor 3, Metaxalone 4 μM): 87.7% | Specific Activity Individual ([2]; Donor 3, Metaxalone 4 μM): 0.468 pmol/min/million cells and 0.464 pmol/min/million cells and 0.406 pmol/min/million cells | Specific Activity Mean ± SD ([2]; Donor 3, Metaxalone 4 μM): 0.446 ± 0.0348 pmol/min/million cells | Percent of VC ([2]; Donor 3, Metaxalone 40 μM): 93.9% | Specific Activity Individual ([2]; Donor 3, Metaxalone 40 μM): 0.470 pmol/min/million cells and 0.495 pmol/min/million cells and 0.469 pmol/min/million cells | Specific Activity Mean ± SD ([2]; Donor 3, Metaxalone 40 μM): 0.478 ± 0.0146 pmol/min/million cells | effects on CYP activity ([2]; any of the tested concentrations (0.4, 4.0, 40 μM)): no significant effects | Mean Conc. ([3]; 0.75 μM): 0.769 µM | Mean Conc. ([3]; 7.5 μM): 7.66 µM | % Turnover Mean ([3]; 0.75 μM): 0.376% | % Turnover Mean ([3]; 7.5 μM): 10.0% | % Turnover Mean [4]: −3.87% | inhibition of CYP activity at a statistically significant level ([5]; 0.3-100 μM metaxalone, p≦0.05): inhibited | Inhibitor [5, 9]: + | inhibition at 30 min, 100 μM ([5]; human, pooled human liver microsomes, probe chlorzoxazone 50 μM (to 6-hydroxy chlorzoxazone)): 12.8% | Percent of VC ([5]; metaxalone 0.3 μM): 83.3% | Specific Activity Individual ([5]; metaxalone 0.3 μM): 196 pmol/min/mg protein and 187 pmol/min/mg protein and 185 pmol/min/mg protein | Specific Activity Mean ± SD ([5]; metaxalone 0.3 μM): 189 ± 6.08 pmol/min/mg protein | Percent of VC ([5]; metaxalone 1 μM): 84.0% | Specific Activity Individual ([5]; metaxalone 1 μM): 194 pmol/min/mg protein (2×) and 185 pmol/min/mg protein | Specific Activity Mean ± SD ([5]; metaxalone 1 μM): 191 ± 5.18 pmol/min/mg protein | Percent of VC ([5]; metaxalone 3 μM): 88.6% | Specific Activity Individual ([5]; metaxalone 3 μM): 203 pmol/min/mg protein (2×) and 198 pmol/min/mg protein | Specific Activity Mean ± SD ([5]; metaxalone 3 μM): 201 ± 2.94 pmol/min/mg protein | Percent of VC ([5]; metaxalone 30 μM): 86.1% | Specific Activity Individual ([5]; metaxalone 30 μM): 191 pmol/min/mg protein and 199 pmol/min/mg protein and 197 pmol/min/mg protein | Specific Activity Mean ± SD ([5]; metaxalone 30 μM): 196 ± 3.88 pmol/min/mg protein | Percent of VC ([5]; metaxalone 100 μM): 87.2% | Specific Activity Individual ([5]; metaxalone 100 μM): 200 pmol/min/mg protein and 202 pmol/min/mg protein and 193 pmol/min/mg protein | Specific Activity Mean ± SD ([5]; metaxalone 100 μM): 198 ± 4.66 pmol/min/mg protein | Metaxalone Present Adjusted Individual ([6]; metaxalone 0.5 μM): 0.357 µM and 0.345 µM and 0.353 µM | Metaxalone Present Adjusted Mean ± SD ([6]; metaxalone 0.5 μM): 0.352 ± 0.00648 µM | Metaxalone Present Raw ([6]; metaxalone 0.5 μM): 0.1787 µM and 0.1724 µM and 0.1766 µM | Percent of Metabolic Negative Control Individual ([6]; metaxalone 0.5 μM): 101% and 97.0% and 99.4% | Percent of Metabolic Negative Control Mean ± SD ([6]; metaxalone 0.5 μM): 99.0 ± 1.83% | Metaxalone Present Adjusted Individual ([6]; metaxalone 2.5 μM): 1.77 μM and 1.76 μM (2×) | Metaxalone Present Adjusted Mean ± SD ([6]; metaxalone 2.5 μM): 1.76 ± 0.00318 µM | Metaxalone Present Raw ([6]; metaxalone 2.5 μM): 0.883 µM and 0.8799 µM and 0.8821 µM | Percent of Metabolic Negative Control Individual ([6]; metaxalone 2.5 μM): 104% | Percent of Metabolic Negative Control Mean ± SD ([6]; metaxalone 2.5 μM): 104 ± 0.188% | Metaxalone Present Adjusted Individual ([6]; metaxalone 25 μM): 17.5 µM and 22.3 µM and 17.8 µM | Metaxalone Present Adjusted Mean ± SD ([6]; metaxalone 25 μM): 19.2 ± 2.71 µM | Metaxalone Present Raw ([6]; metaxalone 25 μM): 8.732 µM and 11.15 µM and 8.879 µM | Percent of Metabolic Negative Control Individual ([6]; metaxalone 25 μM): 98.2% and 125% and 99.9% | Percent of Metabolic Negative Control Mean ± SD ([6]; metaxalone 25 μM): 108 ± 15.3% | percent turnover ([7]; 0.75 μM metaxalone, 5 pmol CYP450): 17.9% | % Turnover Mean ([7]; 0.75 μM metaxalone, 5 pmol cyp): 17.9% | [metaxalone] Mean ([7]; 0.75 μM metaxalone, 5 pmol cyp): 0.585 µM | % Turnover % ([7]; 0.75 μM metaxalone, 5 pmol cyp): 20.3% and 18.3% and 15.0% | [metaxalone] ([7]; 0.75 μM metaxalone, 5 pmol cyp): 0.567 µM and 0.582 µM and 0.605 µM | percent turnover ([7]; 0.75 μM metaxalone, 20 pmol CYP450): 34.0% | % Turnover Mean [7, 10]: 34.0% | [metaxalone] Mean [7, 10]: 0.470 µM | % Turnover % [7, 10]: 31.7% and 39.0% and 31.4% | [metaxalone] [7, 10]: 0.486 µM and 0.434 µM and 0.488 µM | percent turnover ([7]; 7.5 μM metaxalone, 5 pmol CYP450): 16.6% | % Turnover Mean ([7]; 7.5 μM metaxalone, 5 pmol cyp): 16.6% | [metaxalone] Mean ([7]; 7.5 μM metaxalone, 5 pmol cyp): 6.43 µM | % Turnover % ([7]; 7.5 μM metaxalone, 5 pmol cyp): 17.5% and 16.7% and 15.7% | [metaxalone] ([7]; 7.5 μM metaxalone, 5 pmol cyp): 6.36 µM and 6.43 µM and 6.50 µM | percent turnover ([7]; 7.5 μM metaxalone, 20 pmol CYP450): 32.4% | % Turnover Mean ([7]; 7.5 μM metaxalone, 20 pmol cyp): 32.4% | [metaxalone] Mean ([7]; 7.5 μM metaxalone, 20 pmol cyp): 5.22 µM | % Turnover % ([7]; 7.5 μM metaxalone, 20 pmol cyp): 34.3% and 32.8% and 30.0% | [metaxalone] ([7]; 7.5 μM metaxalone, 20 pmol cyp): 5.07 µM and 5.18 µM and 5.40 µM | Substrate ([7]; CYP isozyme 3A4, summary of studies): + | % Turnover Mean ([8]; 0.75 μM metaxalone): 16.0% | % inhibition of turnover Mean ([8]; 0.75 μM metaxalone): 46.2% | Mean Conc. ([8]; 0.75 μM metaxalone): 0.648 µM | % Turnover ([8]; 0.75 μM metaxalone): 13.9% and 14.7% and 19.4% | % inhibition of turnover ([8]; 0.75 μM metaxalone): 53.2% and 50.6% and 34.9% | Conc. ([8]; 0.75 μM metaxalone): 0.664 µM and 0.658 µM and 0.622 µM | % Turnover Mean ([8]; 7.5 μM metaxalone): 12.1% | % inhibition of turnover Mean ([8]; 7.5 μM metaxalone): 50.8% | Mean Conc. ([8]; 7.5 μM metaxalone): 7.48 µM | % Turnover ([8]; 7.5 μM metaxalone): 8.8% and 14.5% and 13.0% | % inhibition of turnover ([8]; 7.5 μM metaxalone): 64.2% and 41.2% and 47.1% | Conc. ([8]; 7.5 μM metaxalone): 7.76 µM and 7.28 µM and 7.41 µM
